Measured values as given in patent US20260217765A1, “NOVEL ANTIMICROBIAL PEPTIDE DESIGNED FROM DUCK-DERIVED ANTIMICROBIAL PEPTIDE ANDUSE THEREOF” (INDUSTRY-ACADEMIC COOPERATION FOUNDATION, CHOSUN UNIVERSITY, priority 2023, published 2026).
In brackets after ≈: the same amount, converted by molar mass. Peptide text beside a SMILES is read from it.

Tests used:
[1] = test system: Listeria monocytogenes KCTC 3710; assay type: cell-based
Excerpt: (§1) To compare the antimicrobial activity of the peptides prepared in <Example 1>, the minimum inhibitory concentration (MIC), […] measured. Here, the minimal inhibitory concentration (MIC) refers to the lowest concentration of a substance that prevents visible bacterial growth.
(§2) Specifically, the bacterial strains listed in Table 2 below were obtained and cultured in media suitable for each strain until the mid-log phase. The cultures were then diluted to a concentration of 2×10^4 cells/100 μL and prepared in microtiter plates (Nunc, USA). Subsequently, serial 2-fold dilutions of the peptides prepared in Example 1 were prepared, and 10 μL of each dilution was added to the wells, and the plates were incubated at 37° C. for 18 hours. Absorbance at 600 nm was measured using a microtiter plate reader (Merck ELISA reader, Germany) to determine the MIC values for each bacterial strain. The parent peptide dCATH was used as a control.

[2] = test system: Bacillus cereus KCTC 2508; assay type: cell-based
Excerpt: as §1, §2

[3] = test system: Escherichia coli ATCC 25922; assay type: cell-based
Excerpt: as §1, §2

[4] = test system: Pseudomonas aeruginosa ATCC 27853; assay type: cell-based
Excerpt: as §1, §2

[5] = test system: Staphylococcus aureus ATCC 25923; assay type: cell-based; details: for MIC: ATCC 25923
Excerpt: as §1, §2

[6] = test system: Acinetobacter baumannii KCTC 1017; assay type: cell-based; details: for MIC: KCTC 1017
Excerpt: as §1, §2

in vitro = assay type: cell-based; details: human, HaCaT keratinocyte cells, Cell Viability
Description: To evaluate the cytotoxicity of the peptides prepared in <Example 1>, toxicity was measured using a human keratinocyte cell line (HaCaT cell line, Dr. N. E. Fusenig, Heidelberg, Germany).
Specifically, HaCaT cells cultured in DMEM medium containing 10% fetal bovine serum (FBS) were seeded at a density of 2×10^5 cells/well into a microtiter plate and incubated for 24 hours. Then, peptides dCATH, dCATH-A1, dCATH-A2, dCATH-A3, dCATH-A4, dCATH-A5, dCATH-A6, and dCATH-A7 were added to each well at concentrations of 3.13, 6.25, 12.5, 25.0, 50.0, and 100.0 μM/well, followed by incubation for 24 hours in a 5% CO2 incubator. After 24 hours, 100 μL of a reaction solution containing 0.5 mg/mL MTT (Thiazolyl Blue Tetrazolium Bromide) dissolved in phosphate-buffered saline (PBS) was added to each well and reacted for 4 hours. After removing the supernatant, 200 μL of DMSO (dimethyl sulfoxide) was added to dissolve the formed MTT crystals, and absorbance at 570 nm was measured to determine cell viability.

[7] = test system: Acinetobacter baumannii_isolate 14; assay type: cell-based, Acinetobacter baumannii; details: isolate 14, 24 h
Description: (§3) Specifically, among the bacterial strains listed in Table 2, those known to form biofilms well (Acinetobacter baumannii KCTC 2508, Acinetobacter baumannii isolate 10, and isolate 14) were cultured in the appropriate media to the mid-log phase and diluted to a cell concentration of 5×10^4 cells/100 µL, followed by inoculation into microplates (SPL). Subsequently, the peptides prepared in <Example 1> were serially 10-fold diluted with 10 mM sodium phosphate buffer (pH 7.2), and 10 μL of each dilution was added to each well. The plates were then incubated at 37° C. for 24 hours. After completely removing the supernatant, the plates were fixed with 100% methanol for 15 minutes, stained with crystal violet staining solution for 1 hour, washed three times, and then the stain was solubilized with 95% ethanol. Absorbance was measured at 595 nm using a microplate reader to determine the MBIC values for each bacterial strain.

[8] = test system: Acinetobacter baumannii_isolate 10; assay type: cell-based, Acinetobacter baumannii; details: isolate 10, 24 h
Description: as §3

[9] = test system: Acinetobacter baumannii_isolate 8 (antibiotic-resistant); assay type: cell-based, Acinetobacter baumannii; details: isolate 8 (antibiotic-resistant)
Excerpt: as §1, §2

[10] = test system: Acinetobacter baumannii_isolate16 (antibiotic-resistant); assay type: cell-based, Acinetobacter baumannii; details: isolate16 (antibiotic-resistant)
Excerpt: as §1, §2

[11] = test system: Acinetobacter baumannii_isolate 1 (antibiotic-resistant); assay type: cell-based, Acinetobacter baumannii; details: isolate 1 (antibiotic-resistant)
Excerpt: as §1, §2

[12] = test system: Acinetobacter baumannii_isolate20 (antibiotic-resistant); assay type: cell-based, Acinetobacter baumannii; details: isolate20 (antibiotic-resistant)
Excerpt: as §1, §2

[13] = test system: Acinetobacter baumannii_isolate 5 (antibiotic-resistant); assay type: cell-based, Acinetobacter baumannii; details: isolate 5 (antibiotic-resistant)
Excerpt: as §1, §2

[14] = test system: Acinetobacter baumannii_isolate15 (antibiotic-resistant); assay type: cell-based, Acinetobacter baumannii; details: isolate15 (antibiotic-resistant)
Excerpt: as §1, §2

[15] = test system: Acinetobacter baumannii_isolate 25 (antibiotic-resistant); assay type: cell-based, Acinetobacter baumannii; details: isolate 25 (antibiotic-resistant)
Excerpt: as §1, §2

[16] = test system: Acinetobacter baumannii_isolate 2 (antibiotic-resistant); assay type: cell-based, Acinetobacter baumannii; details: isolate 2 (antibiotic-resistant)
Excerpt: as §1, §2

[17] = test system: Acinetobacter baumannii_isolate 3 (antibiotic-resistant); assay type: cell-based, Acinetobacter baumannii; details: isolate 3 (antibiotic-resistant)
Excerpt: as §1, §2

[18] = test system: Acinetobacter baumannii_isolate 19 (antibiotic-resistant); assay type: cell-based, Acinetobacter baumannii; details: isolate 19 (antibiotic-resistant)
Excerpt: as §1, §2

[19] = test system: Acinetobacter baumannii_isolate 9 (antibiotic-resistant); assay type: cell-based, Acinetobacter baumannii; details: isolate 9 (antibiotic-resistant)
Excerpt: as §1, §2

[20] = test system: Acinetobacter baumannii_isolate 7 (antibiotic-resistant); assay type: cell-based, Acinetobacter baumannii; details: isolate 7 (antibiotic-resistant)
Excerpt: as §1, §2

[21] = test system: Acinetobacter baumannii_isolate11 (antibiotic-resistant); assay type: cell-based, Acinetobacter baumannii; details: isolate11 (antibiotic-resistant)
Excerpt: as §1, §2

[22] = test system: Acinetobacter baumannii_isolate 10 (antibiotic-resistant); assay type: cell-based, Acinetobacter baumannii; details: isolate 10 (antibiotic-resistant)
Excerpt: as §1, §2

MIC [1] [µM] | MIC [2] [µM] | MIC [3] [µM] | MIC [4] [µM] | MIC [5] [µM] | MIC [6] [µM] | MIC [9] [µM] | MIC [10] [µM] | MIC [11] [µM] | MIC [12] [µM] | MIC [13] [µM] | MIC [14] [µM] | Structure (SMILES) | viability at 24 h, 3.13 µM (in vitro) [%] | viability at 24 h, 6.25 µM (in vitro) [%] | viability at 24 h, 12.5 µM (in vitro) [%] | viability at 24 h, 25 µM (in vitro) [%] | viability at 24 h, 50 µM (in vitro) [%] | viability at 24 h, 100 µM (in vitro) [%] | MBIC [7] [µM] | MBIC [8] [µM] | further results
2 (≈ 5 µg/mL) | 2 (≈ 5 µg/mL) | 2 (≈ 5 µg/mL) | 2 (≈ 5 µg/mL) | 0.5 (≈ 1.25 µg/mL) | 1 (≈ 2.5 µg/mL) | 1 (≈ 2.5 µg/mL) | 1 (≈ 2.5 µg/mL) | 1 (≈ 2.5 µg/mL) | 1 (≈ 2.5 µg/mL) | 1 (≈ 2.5 µg/mL) | 1 (≈ 2.5 µg/mL) | CC[C@H](C)[C@H](NC(=O)[C@H](C)NC(=O)[C@H](CCCCN)NC(=O)[C@H](CCCCN)NC(=O)[C@@H](NC(=O)[C@H](CC(C)C)NC(=O)[C@H](CCC(N)=O)NC(=O)[C@H](C)NC(=O)[C@H](C)NC(=O)[C@H](CCCNC(=N)N)NC(=O)[C@@H](N)CCCCN)C(C)C)C(=O)N[C@@H](CCCCN)C(=O)N[C@@H](CCCCN)C(=O)N[C@@H](Cc1ccc(O)cc1)C(=O)N[C@@H](CCCNC(=N)N)C(=O)N[C@@H](C)C(=O)N[C@@H](Cc1c[nH]c2ccccc12)C(=O)N[C@@H](CCCCN)C(=O)N[C@@H](CCCNC(=N)N)C(=O)N[C@@H](CCCNC(=N)N)C(N)=O [dCATH-A6] (H-KRAAQLVKKAIKKYRAWKRR-NH2; N-terminus assumed) | 98.9 | 100 | 94.7 | 98 | 97.8 | 92 | 2 | 2 | antimicrobial activity compared to the control peptide dCATH ([5]; against Staphylococcus aureus strains): notably superior activity; antimicrobial activity compared to the control peptide dCATH ([6]; against Acinetobacter baumannii): significantly superior antimicrobial activity; MIC [15]: 2 µM (≈ 5 µg/mL); MIC [16]: 2 µM (≈ 5 µg/mL); MIC [17]: 1 µM (≈ 2.5 µg/mL); MIC [18]: 1 µM (≈ 2.5 µg/mL); MIC [19]: 1 µM (≈ 2.5 µg/mL); MIC [20]: 1 µM (≈ 2.5 µg/mL); MIC [21]: 1 µM (≈ 2.5 µg/mL); MIC [22]: 2 µM (≈ 5 µg/mL)
1 (≈ 2.48 µg/mL) | 1 (≈ 2.48 µg/mL) | 1 (≈ 2.48 µg/mL) | 1 (≈ 2.48 µg/mL) | 1 (≈ 2.48 µg/mL) | 1 (≈ 2.48 µg/mL) | 1 (≈ 2.48 µg/mL) | 1 (≈ 2.48 µg/mL) | 1 (≈ 2.48 µg/mL) | 1 (≈ 2.48 µg/mL) | 1 (≈ 2.48 µg/mL) | 1 (≈ 2.48 µg/mL) | CC[C@H](C)[C@H](NC(=O)[C@H](C)NC(=O)[C@H](CCCCN)NC(=O)[C@H](CCCCN)NC(=O)[C@@H](NC(=O)[C@H](CC(C)C)NC(=O)[C@H](CCC(N)=O)NC(=O)[C@H](C)NC(=O)[C@H](C)NC(=O)[C@H](CCCNC(=N)N)NC(=O)[C@@H](N)CCCCN)C(C)C)C(=O)N[C@@H](CCCCN)C(=O)N[C@H](C(=O)N[C@@H](Cc1ccc(O)cc1)C(=O)N[C@@H](CCCNC(=N)N)C(=O)N[C@@H](C)C(=O)N[C@@H](Cc1c[nH]c2ccccc12)C(=O)N[C@@H](CCCCN)C(=O)N[C@@H](CCCNC(=N)N)C(=O)N[C@@H](CCCNC(=N)N)C(N)=O)[C@@H](C)CC [dCATH-A5] (H-KRAAQLVKKAIKIYRAWKRR-NH2; N-terminus assumed) | 100 | 92.3 | 95.1 | 58 | 8.27 | 3.71 | 1 | 2 | MIC [15]: 1 µM (≈ 2.48 µg/mL); MIC [16]: 1 µM (≈ 2.48 µg/mL); MIC [17]: 1 µM (≈ 2.48 µg/mL); MIC [18]: 1 µM (≈ 2.48 µg/mL); MIC [19]: 1 µM (≈ 2.48 µg/mL); MIC [20]: 1 µM (≈ 2.48 µg/mL); MIC [21]: 1 µM (≈ 2.48 µg/mL); MIC [22]: 1 µM (≈ 2.48 µg/mL)
2 (≈ 5.03 µg/mL) | 1 (≈ 2.51 µg/mL) | 2 (≈ 5.03 µg/mL) | 2 (≈ 5.03 µg/mL) | 1 (≈ 2.51 µg/mL) | 1 (≈ 2.51 µg/mL) | 1 (≈ 2.51 µg/mL) | 1 (≈ 2.51 µg/mL) | 2 (≈ 5.03 µg/mL) | 1 (≈ 2.51 µg/mL) | 1 (≈ 2.51 µg/mL) | 1 (≈ 2.51 µg/mL) | CC[C@H](C)[C@H](NC(=O)[C@H](C)NC(=O)[C@H](CC(C)C)NC(=O)[C@@H]1CCCN1C(=O)[C@@H](NC(=O)[C@H](CC(C)C)NC(=O)[C@H](CCC(N)=O)NC(=O)[C@H](C)NC(=O)[C@H](Cc1ccccc1)NC(=O)[C@H](CCCNC(=N)N)NC(=O)[C@@H](N)CCCCN)C(C)C)C(=O)N[C@@H](CCCCN)C(=O)N[C@H](C(=O)N[C@@H](Cc1ccc(O)cc1)C(=O)N[C@@H](CCCNC(=N)N)C(=O)N[C@@H](C)C(=O)N[C@@H](Cc1c[nH]c2ccccc12)C(=O)N[C@@H](CCCCN)C(=O)N[C@@H](CCCNC(=N)N)C(=O)N[C@@H](CCCNC(=N)N)C(N)=O)[C@@H](C)CC [dCATH-A2] (H-KRFAQLVPLAIKIYRAWKRR-NH2; N-terminus assumed) | 100 | 100 | 89 | 30.7 | 2.99 | 2.16 | 2 | 2 | MIC [15]: 1 µM (≈ 2.51 µg/mL); MIC [16]: 1 µM (≈ 2.51 µg/mL); MIC [17]: 1 µM (≈ 2.51 µg/mL); MIC [18]: 1 µM (≈ 2.51 µg/mL); MIC [19]: 2 µM (≈ 5.03 µg/mL); MIC [20]: 1 µM (≈ 2.51 µg/mL); MIC [21]: 1 µM (≈ 2.51 µg/mL); MIC [22]: 2 µM (≈ 5.03 µg/mL)
